According to patent US20260035364A1, “BICYCLIC TETRAHYDROTHIAZEPINE DERIVATIVES” (Hoffmann-La Roche Inc., priority 2022, published 2026):

Columns and labels:
[1] = system: MV-3 cells; assay: T-cell - TCB - MV3 killing assay; type: cell-based; details: Homo sapiens, 120 h, T-cells + MCSP-TCB on MV-3 RFP cells, 5 d; for Emax: 20 μM reference compound A1 = 100%, read-out: MSCP TCB killing MV-3 cells 5 d Emax; for EC50: read-out: MSCP TCB killing MV-3 cells 5 d EC50
Experimental: All culturing steps are executed at 5% CO2, 37° C. and 95% humidity.
MV-3 RFP cells are cultured in MV-3 medium (DMEM+10% FBS, 1× PenStrep and 0.5 μg/mL Puromycin) for at least 3 weeks. Cultured MV-3 cells at 80% confluency are washed once with PBS−− and trypsinized until detached. […] Cells are seeded with 100 μL/well into a 96-well plate (TTP, #92696), and placed for 40 minutes without moving at room temperature in order to achieve evenly distributed attachment of cells. Plates are then incubated until further use.
On the next day, expanded primary human T-cells are thawed and resuspended in T-cell medium to 4*10^6 cells/mL. For 3 hours, they are cultured in a 6-well plate with 6 mL per well at maximum. After culturing the T-cells, they are filtered through a cell strainer (Miltenyi Biotech, #130-041-407), counted again, and cell concentration is adjusted to 2*10^6 cells/mL.
MCSP-TCB or PBS are pre-diluted in T-cell medium (concentration depending on T-cell donor), 4 times more concentrated than the end-concentration. 60 μL/well of pre-dilutions are then distributed into a round bottom plate (Costar, #3799) according to plate layout. Compounds are added in a 9 pt dose response with the Tecan D300e Digital Dispenser, as well 4 times more concentrated than the end-concentration. DMSO concentration of all wells is adjusted to 0.8%, resulting in 0.2% as final concentration.
60 μL per well of T-cell suspension are added to the prepared round bottom plate and resuspended with a manual multichannel. 100 μL/well of the resuspended T-cell suspension including treatments are then transferred cautiously to the over-night cultured MV-3 cells according to plate layout. 100 μL T-cell medium only is added to the outer MV-3 wells only. Final compound DR is starting at 20 μM with a dilution factor of 3.333. Final TCB concentration is between […] and was determined for each T-cell donor individually by running TCB titrations. For each donor, a TCB concentration was chosen which corresponds to 10-20% of MV3 baseline cell killing in the absence of compound treatment. Positive control is the reference compound A1 which is added in a DR, as well as additional wells with only 20 μM. 20 μM of reference compound A1 represent the positive stimulator control, TCB only (DMSO wells) the neutral control.
After transfer of T-cells with treatment pre-dilutions, MV-3 cells are imaged by time-lapse microscopy using IncucyteZOOM™ (Essen BioScience, MI, USA). Imaging is performed every 3 hours for a total of 120 hours (1OX objective, phase and red image channels, acquisition time 400 ms, Green/Red 4614 optical module). RFP object count per well is analysed in the IncucyteZOOM™ Software (Version 2019B Rev2) with a mask that was previously created and optimized for MV-3 cells. Raw data is exported as object count/well and values are normalized as % TCL compared to wells with MV-3 only, representing 100% growth and therefore 0% TCL.
Calculated % TCL values are analysed in Genedata Screener using Roche Normalization PCT_POS_CTRL with MCSP-TCB only set as Neutral Control and 20 μM of the reference compound A1 set as Stimulator Control/100%.
Induced TCL by compounds without TCB treatment or toxicity (observed in the PBS condition) were be flagged.

[2] = molecular target: DGKzeta (Homo sapiens, UniProt Q13574); assay: In vitro DGK inhibition assay (ADP Glo) run by Reaction Biology Corp., DGKzeta; type: biochemical; set-up: purchased Reaction Biology Corp. (assay service); details: 2 nM kinase, 500 uM DLG, 10-dose duplicate
Experimental: (§1) DGK α and ζ kinases use ATP to phosphorylate the substrate 1,2-dilauroyl-sn-glycerol (DLG). ATP is converted to ADP as a result of this enzymatic reaction.
(§2) After the kinase reaction, an ATP-depletion reagent is added to terminate the kinase reaction and deplete any remaining ATP, leaving only ADP. Second, a detection reagent is added to simultaneously convert ADP to ATP and allow the newly synthesized ATP to be converted to light using a coupled
(§3) luciferase/luciferin reaction.
(§4) DGK α and ζ kinase ADP Glo assays were ran by Reaction Biology Corp., 1 Great Valley Parkway, Suite 2, Malvern, 19355, PA, USA. Information provided by the service provider are the following: DGK α and ζ kinases were used at 2 nM final concentration. Reactions were carried out at 50 µM ATP. 500 uM of the substrate DLG (Dilauroyl-sn-glycerol) was used.

[3] = molecular target: DGKalpha (Homo sapiens, UniProt P23743); assay: In vitro DGK inhibition assay (ADP Glo) run by Reaction Biology Corp., DGKalpha; type: biochemical; set-up: purchased Reaction Biology Corp. (assay service); details: 2 nM kinase, 500 uM DLG, 10-dose duplicate
Experimental: as §1, §2, §3, §4

DGKalpha, sequence (P23743 whole entry, species assumed): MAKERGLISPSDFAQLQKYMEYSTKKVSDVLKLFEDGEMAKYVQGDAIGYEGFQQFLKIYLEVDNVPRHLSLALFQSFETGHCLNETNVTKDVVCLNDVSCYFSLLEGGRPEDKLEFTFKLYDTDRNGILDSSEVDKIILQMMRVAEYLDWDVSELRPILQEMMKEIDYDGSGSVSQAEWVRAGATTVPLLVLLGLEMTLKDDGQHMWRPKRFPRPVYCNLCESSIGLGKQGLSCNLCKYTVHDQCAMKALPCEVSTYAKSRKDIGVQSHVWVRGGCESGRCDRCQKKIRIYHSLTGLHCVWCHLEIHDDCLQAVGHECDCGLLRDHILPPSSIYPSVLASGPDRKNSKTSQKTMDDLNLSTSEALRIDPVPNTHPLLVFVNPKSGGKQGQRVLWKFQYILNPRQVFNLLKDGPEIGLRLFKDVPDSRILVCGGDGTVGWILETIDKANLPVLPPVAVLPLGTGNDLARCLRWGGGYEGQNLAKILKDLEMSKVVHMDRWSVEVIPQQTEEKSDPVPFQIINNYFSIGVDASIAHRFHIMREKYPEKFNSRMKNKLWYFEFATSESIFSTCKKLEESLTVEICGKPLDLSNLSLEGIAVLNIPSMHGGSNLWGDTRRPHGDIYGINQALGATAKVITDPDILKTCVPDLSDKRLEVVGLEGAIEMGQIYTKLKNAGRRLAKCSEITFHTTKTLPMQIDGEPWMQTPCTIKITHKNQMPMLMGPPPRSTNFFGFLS
DGKzeta, sequence (Q13574 whole entry, species assumed): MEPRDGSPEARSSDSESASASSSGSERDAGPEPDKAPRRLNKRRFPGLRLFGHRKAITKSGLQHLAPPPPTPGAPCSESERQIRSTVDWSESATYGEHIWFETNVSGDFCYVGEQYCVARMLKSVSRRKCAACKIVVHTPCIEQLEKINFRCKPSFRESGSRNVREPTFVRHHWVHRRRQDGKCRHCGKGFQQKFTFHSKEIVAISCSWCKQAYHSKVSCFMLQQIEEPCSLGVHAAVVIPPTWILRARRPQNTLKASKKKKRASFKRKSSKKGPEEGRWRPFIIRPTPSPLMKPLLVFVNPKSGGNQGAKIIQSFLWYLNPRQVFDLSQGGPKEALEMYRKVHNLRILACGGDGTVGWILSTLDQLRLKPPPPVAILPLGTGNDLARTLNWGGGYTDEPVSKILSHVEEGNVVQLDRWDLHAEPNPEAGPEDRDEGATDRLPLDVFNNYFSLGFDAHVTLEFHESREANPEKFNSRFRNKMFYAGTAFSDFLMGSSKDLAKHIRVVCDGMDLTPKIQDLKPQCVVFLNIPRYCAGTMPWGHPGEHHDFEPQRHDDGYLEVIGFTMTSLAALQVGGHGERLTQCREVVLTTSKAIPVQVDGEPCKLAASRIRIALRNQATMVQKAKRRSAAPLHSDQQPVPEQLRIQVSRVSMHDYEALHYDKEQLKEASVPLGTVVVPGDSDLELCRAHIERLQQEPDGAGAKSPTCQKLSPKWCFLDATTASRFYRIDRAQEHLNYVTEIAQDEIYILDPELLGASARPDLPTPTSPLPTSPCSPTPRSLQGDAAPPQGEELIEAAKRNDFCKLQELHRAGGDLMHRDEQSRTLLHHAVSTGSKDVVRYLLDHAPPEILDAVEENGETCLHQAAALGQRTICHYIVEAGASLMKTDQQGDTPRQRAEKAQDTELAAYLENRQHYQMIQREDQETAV

Row | Structure (SMILES) | Emax [1] [%] | EC50 [1] [µM] | IC50 [2] [µM] | IC50 [3] [µM]
1 | CC(C)(c1nnc(-c2ccc3c(c2)N(Cc2ccc(-c4ccc(C(F)(F)F)cc4)nc2)C(=O)[C@@H](N)CS3(=O)=O)o1)S(C)(=O)=O [Example 57, (3R)-3-amino-7-[5-(1-methyl-1-methylsulfonyl-ethyl)-1,3,4-oxadiazol-2-yl]-1,1-dioxo-5-[[6-[4-(trifluoromethyl)phenyl]-3-pyridyl]methyl]-2,3-dihydro-1λ6,5-benzothiazepin-4-one] | 104 | 1.85 | – | –
2 | CC(C)(c1nc(-c2cc3c(cc2F)S(=O)(=O)C[C@H](N)C(=O)N3Cc2ccc(OC(F)(F)F)cc2)no1)S(C)(=O)=O [Example 44, (3R)-3-amino-8-fluoro-7-[5-(1-methyl-1-methylsulfonyl-ethyl)-1,2,4-oxadiazol-3-yl]-1,1-dioxo-5-[[4-(trifluoromethoxy)phenyl]methyl]-2,3-dihydro-1λ6,5-benzothiazepin-4-one] | 131 | 0.065 | – | –
3 | CC(C)(c1nnc(-c2ccc3c(c2)N(Cc2ccc(-c4ccc(C(F)(F)F)cc4)cc2)C(=O)[C@@H](N)CS3(=O)=O)o1)S(C)(=O)=O [Example 56, (3R)-3-amino-7-[5-(1-methyl-1-methylsulfonyl-ethyl)-1,3,4-oxadiazol-2-yl]-1,1-dioxo-5-[[4-[4-(trifluoromethyl)phenyl]phenyl]methyl]-2,3-dihydro-1λ6,5-benzothiazepin-4-one] | 100 | 0.105 | 0.142 | 0.0677
4 | CC(C)(c1nc(-c2cc3c(cc2F)S(=O)(=O)C[C@H](N)C(=O)N3Cc2ccc(-c3noc(C4CC4)n3)cc2)no1)S(C)(=O)=O [Example 45, (3R)-3-amino-5-[[4-(5-cyclopropyl-1,2,4-oxadiazol-3-yl)phenyl]methyl]-8-fluoro-7-[5-(1-methyl-1-methylsulfonyl-ethyl)-1,2,4-oxadiazol-3-yl]-1,1-dioxo-2,3-dihydro-1λ6,5-benzothiazepin-4-one] | 67 | 0.035 | – | –
5 | CC(C)(c1nc(-c2cc3c(cc2F)S(=O)(=O)C[C@H](N)C(=O)N3Cc2ccc(-c3noc(C(F)(F)F)n3)cc2)no1)S(C)(=O)=O [Example 46, (3R)-3-amino-8-fluoro-7-[5-(1-methyl-1-methylsulfonyl-ethyl)-1,2,4-oxadiazol-3-yl]-1,1-dioxo-5-[[4-[5-(trifluoromethyl)-1,2,4-oxadiazol-3-yl]phenyl]methyl]-2,3-dihydro-1λ6,5-benzothiazepin-4-one] | 65 | 0.025 | – | –
6 | CC(C)(c1nnc(-c2ccc3c(c2)N(Cc2ccc(Oc4cccc(F)c4)cc2)C(=O)[C@@H](N)CS3(=O)=O)o1)S(C)(=O)=O [Example 33, (3R)-3-amino-5-[[4-(3-fluorophenoxy)phenyl]methyl]-7-[5-(1-methyl-1-methylsulfonyl-ethyl)-1,3,4-oxadiazol-2-yl]-1,1-dioxo-2,3-dihydro-1λ6,5-benzothiazepin-4-one] | 117 | 0.465 | – | –
7 | CC(C)(c1nnc(-c2ccc3c(c2)N(Cc2ccc(Oc4cccc(C(F)(F)F)c4)cc2)C(=O)[C@@H](N)CS3(=O)=O)o1)S(C)(=O)=O [Example 38] | 102 | 0.112 | – | –
8 | CC(C)(c1nnc(-c2cc3c(cc2F)S(=O)(=O)C[C@H](N)C(=O)N3Cc2ccc(-c3ccc(C(F)(F)F)cc3)cc2)o1)S(C)(=O)=O [Example 35, (3R)-3-amino-8-fluoro-7-[5-(1-methyl-1-methylsulfonyl-ethyl)-1,3,4-oxadiazol-2-yl]-1,1-dioxo-5-[[4-[4-(trifluoromethyl)phenyl]phenyl]methyl]-2,3-dihydro-1λ6,5-benzothiazepin-4-one] | – | – | 0.0066 | 0.0071
9 | CC(C)(c1nc(-c2cc3c(cc2F)S(=O)(=O)C[C@H](N)C(=O)N3Cc2ccc(Oc3ccccc3)cc2)no1)S(C)(=O)=O [Example 30, (3R)-3-amino-8-fluoro-7-[5-(1-methyl-1-methylsulfonyl-ethyl)-1,2,4-oxadiazol-3-yl]-1,1-dioxo-5-[(4-phenoxyphenyl)methyl]-2,3-dihydro-1λ6,5-benzothiazepin-4-one] | 100 | 0.041 | 0.0055 | 0.0078
10 | CC(C)(c1nnc(-c2ccc3c(c2)N(Cc2ccc(Oc4cccc(Cl)c4)cc2)C(=O)[C@@H](N)CS3(=O)=O)o1)S(C)(=O)=O [Example 34, (3R)-3-amino-5-[[4-(3-chlorophenoxy)phenyl]methyl]-7-[5-(1-methyl-1-methylsulfonyl-ethyl)-1,3,4-oxadiazol-2-yl]-1,1-dioxo-2,3-dihydro-1λ6,5-benzothiazepin-4-one] | 95 | 0.392 | – | –
11 | CC(C)(c1nnc(-c2ccc3c(c2)N(Cc2ccc(Oc4ccccc4)cc2)C(=O)[C@@H](N)CS3(=O)=O)o1)S(C)(=O)=O [Example 5, (3R)-3-amino-7-[5-(1-methyl-1-methylsulfonyl-ethyl)-1,3,4-oxadiazol-2-yl]-1,1-dioxo-5-[(4-phenoxyphenyl)methyl]-2,3-dihydro-1λ6,5-benzothiazepin-4-one] | 154 | 0.982 | – | –
